Reference: patent publication US20260242419A1, “A CYCLIC PEPTIDE FOR TRAPPING INTERLEUKIN-1 BETA” (Merck Sharp & Dohme LLC, priority 2023, published 2026)
Starred links: 1 amine or outer side, 2 acyl side, 3 side chain; linkers in the order of their positions; H or OH if unused. Non-standard residues stand in square brackets, D forms with d. Residues, ends and D or L forms follow the SMILES beside them. Phe(4-(5-CO2H-2-pyrimidyl)) = N[C@@H](Cc1ccc(-c2ncc(C(=O)O)cn2)cc1)C(=O)O; Phe(4-(4-Ac-piperazinyl)) = CC(=O)N1CCN(c2ccc(C[C@H](N)C(=O)O)cc2)CC1; Trp(4-Cl)(βS-Me) = C[C@@H](c1c[nH]c2cccc(Cl)c12)[C@H](N)C(=O)O; dPro(4R-(4-pyridylmethyl)) = O=C(O)[C@H]1C[C@@H](Cc2ccncc2)CN1; Trp(βS-Me,4-F) = C[C@@H](c1c[nH]c2cccc(F)c12)[C@H](N)C(=O)O; Bip(4'-COOH) = N[C@@H](Cc1ccc(-c2ccc(C(=O)O)cc2)cc1)C(=O)O; Ala(1-bicyclo(1.1.1)pentyl) = N[C@@H](CC12CC(C1)C2)C(=O)O; dPro(3S-(4-F-Bn)) = O=C(O)[C@@H]1NCC[C@@H]1Cc1ccc(F)cc1; Phe(2-Cl,4-COOH) = N[C@@H](Cc1ccc(C(=O)O)cc1Cl)C(=O)O; 1Nal(3S-Me) = C[C@@H](c1cccc2ccccc12)[C@H](N)C(=O)O; X13 = O=C(O)c1ccc(C[C@H](N[*:1])C(=O)[*:2])cc1Cl; Ala(pyrimidin-5-yl) = N[C@@H](Cc1cncnc1)C(=O)O; Phe(4-COOH) = N[C@@H](Cc1ccc(C(=O)O)cc1)C(=O)O; Pro(cis-4-F) = O=C(O)[C@@H]1C[C@H](F)CN1; Ala(4-THP) = N[C@@H](CC1CCOCC1)C(=O)O; AEF = NCCOc1ccc(C[C@H](N)C(=O)O)cc1; d(αMeD) = C[C@@](N)(CC(=O)O)C(=O)O; 4Pal = N[C@@H](Cc1ccncc1)C(=O)O; aThr = C[C@H](O)[C@H](N)C(=O)O; d(αMeS) = C[C@@](N)(CO)C(=O)O; Dab = NCC[C@H](N)C(=O)O; Aib = CC(C)(N)C(=O)O

Target: T1, IL-1β (Homo sapiens, UniProt P01584)
T1 construct: purchased BioLegend 579404
Assay: IL-6 assay in MRC5 cells: inhibition of IL-1β induced IL-6 secretion (AlphaLISA)
Assay type: cell-based
Conditions: inhibition of IL-1β induced IL-6 secretion in MRC5 cells; read-out: MRC5 IC50
How it was run: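 Compound was pre-incubated 1 h at ambient temperature with recombinant human IL-1β at 2λ EC80 before adding human lung fibroblast MRC5 cells (3000/well) in EMEM with 0.025% BSA. After overnight culture at 37 °C, 5% CO2, secreted IL-6 in conditioned medium was measured by AlphaLISA; IC50 from 4-parameter logistic fits.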

T1 sequence (P01584 117-269): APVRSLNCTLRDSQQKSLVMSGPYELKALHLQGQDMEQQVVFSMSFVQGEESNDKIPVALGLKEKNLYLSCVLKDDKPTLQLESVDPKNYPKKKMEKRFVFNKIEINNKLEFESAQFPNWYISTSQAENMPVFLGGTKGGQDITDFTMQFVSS

IC50 [nM]	SMILES
0.011	C[C@H](O)[C@@H]1NC(=O)[C@@](C)(CC(=O)O)NC(=O)[C@H](Cc2c[nH]c3ccccc23)NC(=O)[C@H](CO)NC(=O)C(C)(C)NC(=O)[C@H]([C@@H](C)c2c[nH]c3cccc(F)c23)NC(=O)[C@@H]2C[C@H](F)CN2C(=O)CNC(=O)[C@H](Cc2ccc(C(=O)O)cc2)NC(=O)[C@H](Cc2ccncc2)NC(=O)[C@H](Cc2ccc(-c3ccc(C(=O)O)cc3)cc2)NC(=O)[C@H]2C[C@@H](Cc3ccncc3)CN2C(=O)CNC(=O)[C@H](CCN)NC(=O)[C@H](CCC(N)=O)NC1=O [Example 359] (cyclo([Bip(4'-COOH)][4Pal][Phe(4-COOH)]G[Pro(cis-4-F)][Trp(βS-Me,4-F)][Aib]SW[d(αMeD)][aThr]Q[Dab]G[dPro(4R-(4-pyridylmethyl))]))
0.019	C[C@@H](c1cccc2ccccc12)[C@@H]1NC(=O)[C@@H]2C[C@H](F)CN2C(=O)CNC(=O)[C@H](Cc2ccc(C(=O)O)cc2Cl)NC(=O)[C@H](Cc2ccncc2)NC(=O)[C@H](Cc2ccc(-c3ncc(C(=O)O)cn3)cc2)NC(=O)[C@H]2C[C@@H](Cc3ccncc3)CN2C(=O)CNC(=O)[C@H](CCN)NC(=O)[C@H](CCC(N)=O)NC(=O)[C@H](CC2CCOCC2)NC(=O)[C@@](C)(CC(=O)O)NC(=O)[C@H](Cc2c[nH]c3ccccc23)NC(=O)[C@H](CO)NC(=O)C(C)(C)NC1=O [Example 360] (cyclo([Phe(4-(5-CO2H-2-pyrimidyl))][4Pal][Phe(2-Cl,4-COOH)]G[Pro(cis-4-F)][1Nal(3S-Me)][Aib]SW[d(αMeD)][Ala(4-THP)]Q[Dab]G[dPro(4R-(4-pyridylmethyl))]))
0.022	C[C@@H](c1c[nH]c2cccc(F)c12)[C@@H]1NC(=O)[C@@H]2C[C@H](F)CN2C(=O)CNC(=O)[C@H](Cc2ccc(C(=O)O)c(Cl)c2)NC(=O)[C@H](Cc2ccncc2)NC(=O)[C@H](Cc2ccc(-c3ncc(C(=O)O)cn3)cc2)NC(=O)[C@H]2C[C@@H](Cc3ccncc3)CN2C(=O)CNC(=O)[C@H](CCN)NC(=O)[C@H](CCC(N)=O)NC(=O)[C@H](CC2CCOCC2)NC(=O)[C@@](C)(CC(=O)O)NC(=O)[C@H](Cc2c[nH]c3ccccc23)NC(=O)[C@H](CO)NC(=O)C(C)(C)NC1=O [Example 361] (cyclo([Phe(4-(5-CO2H-2-pyrimidyl))][4Pal][X13]G[Pro(cis-4-F)][Trp(βS-Me,4-F)][Aib]SW[d(αMeD)][Ala(4-THP)]Q[Dab]G[dPro(4R-(4-pyridylmethyl))]))
0.023	CC(=O)NCCOc1ccc(C[C@@H]2NC(=O)[C@H]3C[C@@H](Cc4ccncc4)CN3C(=O)CNC(=O)[C@H](CCN)NC(=O)[C@H](CCC(N)=O)NC(=O)[C@H](CC3CCOCC3)NC(=O)[C@@](C)(CC(=O)O)NC(=O)[C@H](Cc3c[nH]c4ccccc34)NC(=O)[C@H](CO)NC(=O)C(C)(C)NC(=O)[C@H]([C@@H](C)c3c[nH]c4cccc(Cl)c34)NC(=O)[C@@H]3C[C@H](F)CN3C(=O)CNC(=O)[C@H](Cc3ccc(C(=O)O)cc3)NC(=O)[C@H](Cc3ccncc3)NC2=O)cc1 [Example 362] (cyclo([AEF](Ac)[4Pal][Phe(4-COOH)]G[Pro(cis-4-F)][Trp(4-Cl)(βS-Me)][Aib]SW[d(αMeD)][Ala(4-THP)]Q[Dab]G[dPro(4R-(4-pyridylmethyl))]))
0.021	CC(=O)NCCOc1ccc(C[C@@H]2NC(=O)[C@H]3C[C@@H](Cc4ccncc4)CN3C(=O)CNC(=O)[C@H](CCN)NC(=O)[C@H](CCC(N)=O)NC(=O)[C@H](CC3CCOCC3)NC(=O)[C@@](C)(CC(=O)O)NC(=O)[C@H](Cc3c[nH]c4ccccc34)NC(=O)[C@H](CO)NC(=O)C(C)(C)NC(=O)[C@H]([C@@H](C)c3cccc4ccccc34)NC(=O)[C@@H]3C[C@H](F)CN3C(=O)CNC(=O)[C@H](Cc3ccc(C(=O)O)cc3Cl)NC(=O)[C@H](Cc3ccncc3)NC2=O)cc1 [Example 363] (cyclo([AEF](Ac)[4Pal][Phe(2-Cl,4-COOH)]G[Pro(cis-4-F)][1Nal(3S-Me)][Aib]SW[d(αMeD)][Ala(4-THP)]Q[Dab]G[dPro(4R-(4-pyridylmethyl))]))
0.015	C[C@@H](c1c[nH]c2cccc(F)c12)[C@@H]1NC(=O)[C@@H]2C[C@H](F)CN2C(=O)CNC(=O)[C@H](Cc2ccc(C(=O)O)cc2)NC(=O)[C@H](Cc2ccncc2)NC(=O)[C@H](Cc2ccc(-c3ccc(C(=O)O)cc3)cc2)NC(=O)[C@H]2C[C@@H](Cc3ccncc3)CN2C(=O)CNC(=O)[C@H](CCN)NC(=O)[C@H](CCC(N)=O)NC(=O)[C@H](CC2CCOCC2)NC(=O)[C@@](C)(CO)NC(=O)[C@H](Cc2c[nH]c3ccccc23)NC(=O)[C@H](CO)NC(=O)C(C)(C)NC1=O [Example 364] (cyclo([Bip(4'-COOH)][4Pal][Phe(4-COOH)]G[Pro(cis-4-F)][Trp(βS-Me,4-F)][Aib]SW[d(αMeS)][Ala(4-THP)]Q[Dab]G[dPro(4R-(4-pyridylmethyl))]))
0.023	CC(=O)N1CCN(c2ccc(C[C@@H]3NC(=O)[C@H]4C[C@@H](Cc5ccncc5)CN4C(=O)CNC(=O)[C@H](CCN)NC(=O)[C@H](CCC(N)=O)NC(=O)[C@H](Cc4cncnc4)NC(=O)C(C)(C)NC(=O)[C@H](Cc4c[nH]c5ccccc45)NC(=O)[C@H](CO)NC(=O)C(C)(C)NC(=O)[C@H]([C@@H](C)c4c[nH]c5cccc(F)c45)NC(=O)[C@@H]4C[C@H](F)CN4C(=O)CNC(=O)[C@H](Cc4ccc(C(=O)O)cc4Cl)NC(=O)[C@H](Cc4ccncc4)NC3=O)cc2)CC1 [Example 365] (cyclo([Phe(4-(4-Ac-piperazinyl))][4Pal][Phe(2-Cl,4-COOH)]G[Pro(cis-4-F)][Trp(βS-Me,4-F)][Aib]SW[Aib][Ala(pyrimidin-5-yl)]Q[Dab]G[dPro(4R-(4-pyridylmethyl))]))
0.021	CC(=O)N1CCN(c2ccc(C[C@@H]3NC(=O)[C@H]4C[C@@H](Cc5ccncc5)CN4C(=O)CNC(=O)[C@H](CCN)NC(=O)[C@H](CCC(N)=O)NC(=O)[C@H](Cc4cncnc4)NC(=O)C(C)(C)NC(=O)[C@H](Cc4c[nH]c5ccccc45)NC(=O)[C@H](CO)NC(=O)C(C)(C)NC(=O)[C@H]([C@@H](C)c4c[nH]c5cccc(F)c45)NC(=O)[C@@H]4C[C@H](F)CN4C(=O)CNC(=O)[C@H](Cc4ccc(C(=O)O)cc4)NC(=O)[C@H](Cc4ccncc4)NC3=O)cc2)CC1 [Example 366] (cyclo([Phe(4-(4-Ac-piperazinyl))][4Pal][Phe(4-COOH)]G[Pro(cis-4-F)][Trp(βS-Me,4-F)][Aib]SW[Aib][Ala(pyrimidin-5-yl)]Q[Dab]G[dPro(4R-(4-pyridylmethyl))]))
0.017	CC(=O)NCCOc1ccc(C[C@@H]2NC(=O)[C@H]3C[C@@H](Cc4ccncc4)CN3C(=O)CNC(=O)[C@H](CCN)NC(=O)[C@H](CCC(N)=O)NC(=O)[C@H](Cc3cncnc3)NC(=O)C(C)(C)NC(=O)[C@H](Cc3c[nH]c4ccccc34)NC(=O)[C@H](CO)NC(=O)C(C)(C)NC(=O)[C@H]([C@@H](C)c3c[nH]c4cccc(F)c34)NC(=O)[C@@H]3C[C@H](F)CN3C(=O)CNC(=O)[C@H](Cc3ccc(C(=O)O)cc3Cl)NC(=O)[C@H](Cc3ccncc3)NC2=O)cc1 [Example 367] (cyclo([AEF](Ac)[4Pal][Phe(2-Cl,4-COOH)]G[Pro(cis-4-F)][Trp(βS-Me,4-F)][Aib]SW[Aib][Ala(pyrimidin-5-yl)]Q[Dab]G[dPro(4R-(4-pyridylmethyl))]))
0.022	CC(=O)NCCOc1ccc(C[C@@H]2NC(=O)[C@H]3C[C@@H](Cc4ccncc4)CN3C(=O)CNC(=O)[C@H](CCN)NC(=O)[C@H](CCC(N)=O)NC(=O)[C@H](Cc3cncnc3)NC(=O)C(C)(C)NC(=O)[C@H](Cc3c[nH]c4ccccc34)NC(=O)[C@H](CO)NC(=O)C(C)(C)NC(=O)[C@H]([C@@H](C)c3c[nH]c4cccc(F)c34)NC(=O)[C@@H]3C[C@H](F)CN3C(=O)CNC(=O)[C@H](Cc3ccc(C(=O)O)cc3)NC(=O)[C@H](Cc3ccncc3)NC2=O)cc1 [Example 368] (cyclo([AEF](Ac)[4Pal][Phe(4-COOH)]G[Pro(cis-4-F)][Trp(βS-Me,4-F)][Aib]SW[Aib][Ala(pyrimidin-5-yl)]Q[Dab]G[dPro(4R-(4-pyridylmethyl))]))
0.021	CC(=O)NCCOc1ccc(C[C@@H]2NC(=O)[C@H]3[C@@H](Cc4ccc(F)cc4)CCN3C(=O)CNC(=O)[C@H](CCN)NC(=O)[C@H](CCC(N)=O)NC(=O)[C@H](Cc3cncnc3)NC(=O)[C@@](C)(CC(=O)O)NC(=O)[C@H](Cc3c[nH]c4ccccc34)NC(=O)[C@H](CO)NC(=O)C(C)(C)NC(=O)[C@H]([C@@H](C)c3c[nH]c4cccc(F)c34)NC(=O)[C@@H]3C[C@H](F)CN3C(=O)CNC(=O)[C@H](Cc3ccc(C(=O)O)cc3)NC(=O)[C@H](Cc3ccncc3)NC2=O)cc1 [Example 369] (cyclo([AEF](Ac)[4Pal][Phe(4-COOH)]G[Pro(cis-4-F)][Trp(βS-Me,4-F)][Aib]SW[d(αMeD)][Ala(pyrimidin-5-yl)]Q[Dab]G[dPro(3S-(4-F-Bn))]))
0.015	CC(=O)NCCOc1ccc(C[C@@H]2NC(=O)[C@H]3[C@@H](Cc4ccc(F)cc4)CCN3C(=O)CNC(=O)[C@H](CCN)NC(=O)[C@H](CCC(N)=O)NC(=O)[C@H](CC3CCOCC3)NC(=O)[C@@](C)(CC(=O)O)NC(=O)[C@H](Cc3c[nH]c4ccccc34)NC(=O)[C@H](CO)NC(=O)C(C)(C)NC(=O)[C@H]([C@@H](C)c3c[nH]c4cccc(F)c34)NC(=O)[C@@H]3C[C@H](F)CN3C(=O)CNC(=O)[C@H](Cc3ccc(C(=O)O)cc3)NC(=O)[C@H](CC34CC(C3)C4)NC2=O)cc1 [Example 370] (cyclo([AEF](Ac)[Ala(1-bicyclo(1.1.1)pentyl)][Phe(4-COOH)]G[Pro(cis-4-F)][Trp(βS-Me,4-F)][Aib]SW[d(αMeD)][Ala(4-THP)]Q[Dab]G[dPro(3S-(4-F-Bn))]))
0.014	CC(=O)NCCOc1ccc(C[C@@H]2NC(=O)[C@H]3[C@@H](Cc4ccc(F)cc4)CCN3C(=O)CNC(=O)[C@H](CCN)NC(=O)[C@H](CCC(N)=O)NC(=O)[C@H](CC3CCOCC3)NC(=O)[C@@](C)(CO)NC(=O)[C@H](Cc3c[nH]c4ccccc34)NC(=O)[C@H](CO)NC(=O)C(C)(C)NC(=O)[C@H]([C@@H](C)c3c[nH]c4cccc(F)c34)NC(=O)[C@@H]3C[C@H](F)CN3C(=O)CNC(=O)[C@H](Cc3ccc(C(=O)O)cc3)NC(=O)[C@H](CC34CC(C3)C4)NC2=O)cc1 [Example 371] (cyclo([AEF](Ac)[Ala(1-bicyclo(1.1.1)pentyl)][Phe(4-COOH)]G[Pro(cis-4-F)][Trp(βS-Me,4-F)][Aib]SW[d(αMeS)][Ala(4-THP)]Q[Dab]G[dPro(3S-(4-F-Bn))]))
